Source: US9409905B2, “Antibacterial compounds and methods for use” (PTC THERAPEUTICS, INC., priority 2011, dated 2016)
Values after ≈ are worked out from the molar mass of the structure shown.

Columns and labels:
E. coli 25922 = assay: Antibacterial activity, microbroth dilution MIC (Table 1); format: cell-based, Escherichia coli; conditions: Escherichia coli; microbroth dilution; control Gram-negative E. coli 25922 strain; read-out: MIC, 25922
Outline: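 Using broth microdilution, MIC endpoints (μg/mL) mark where visible growth no longer appears; the panel spans sensitive and control Gram-negative strains plus a Gram-positive strain.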

[1] = system: Escherichia coli (E. coli) BAS849; assay: as above; format: cell-based; conditions: microbroth dilution, super sensitive Gram-negative E. coli BAS849, read-out: MIC, BAS849
Outline: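 Growth inhibition by microbroth dilution. MIC = lowest μg/mL with no visible growth. Strain 25922 is the control Gram-negative; BAS849 is hypersensitive.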

[2] = system: Staphylococcus aureus (S. aureus) 29213; assay: as above; format: cell-based; conditions: microbroth dilution, Gram-positive S. aureus 29213, read-out: MIC, 29213
Outline: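 Lowest concentration stopping macroscopically visible growth under test conditions, by broth microdilution, defines the MIC (μg/mL).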

[3] = system: Pseudomonas aeruginosa (P. aeruginosa) 27853; assay: Antibacterial activity, MIC (Table 5); format: cell-based; conditions: P. aeruginosa 27853, read-out: MIC, 27853
Text: (§1) The antibacterial activity from a microbroth dilution method may be presented as the minimum inhibitory concentration (MIC in μg/mL). The MIC value is the lowest concentration of drug which prevents macroscopically visible growth under test conditions.
Antibacterial activity of test compounds against the Gram-negative bacterium Pseudomonas aeruginosa (P. aeruginosa) 27853 is shown in Table 5.

E. coli LZ3111 = assay: Antibacterial activity, MIC, quinolone resistant strain (Table 2); format: cell-based; conditions: Escherichia coli, LZ3111, read-out: MIC LZ3111
Outline: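 MIC values (μg/mL) came from a microbroth dilution assay, scored as the lowest drug concentration at which no growth was visible by eye.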

[4] = system: Acinetobacter baumannii (A. baumannii) BAA747; assay: Antibacterial activity, MIC (Table 4); format: cell-based; conditions: A. baumannii BAA747, read-out: MIC, BAA747
Text: as §1
(§2) Antibacterial activity of test compounds against the Gram-negative Acinetobacter baumannii (A. baumannii) BAA747 and Klebsiella pneumoniae (K. pneumoniae) 35657 bacterium and the resistant A. baumannii MXX2240 and K. pneumoniae MXX1232 strains are shown in Table 4. The MMX strains are multi-drug resistant clinical isolates.

[5] = system: Klebsiella pneumoniae (K. pneumoniae) 35657; assay: Antibacterial activity, MIC (Table 4); format: cell-based; conditions: K. pneumoniae 35657, read-out: MIC, 35657
Text: as §1, §2

K. pneumoniae MXX1232 = assay: Antibacterial activity, MIC, resistant strain (Table 4); format: cell-based; conditions: Klebsiella pneumoniae, MXX1232; resistant K. pneumoniae MMX1232, multi-drug resistant clinical isolate; read-out: MIC, MMX1232
Text: as §1, §2

Structure (SMILES) | MIC (E. coli 25922) [µg/mL] | MIC [1] [µg/mL] | MIC [2] [µg/mL] | MIC [3] [µg/mL] | MIC (E. coli LZ3111) [µg/mL] | MIC [4] [µg/mL] | MIC [5] [µg/mL] | MIC (K. pneumoniae MXX1232) [µg/mL]
CCc1cc(C(=O)O)c(=O)[nH]c1-c1ccc2c(c1)cc(CN1CCC(O)C1)n2C (stereo not shown) [Cpd 125, 5-ethyl-6-(2-((3-hydroxypyrrolidin-1-yl)methyl)-1-methyl-1H-indol-5-yl)-2-oxo-1,2-dihydropyridine-3-carboxylic acid] | 1 to 3.5 (≈ 2.53 to 8.85 µM) | < 1 | 12.5 to 150 (≈ 31.6 to 379 µM) | 12.5 to 150 (≈ 31.6 to 379 µM) | 12.5 to 150 (≈ 31.6 to 379 µM) | 12.5 to 150 (≈ 31.6 to 379 µM) | < 1 | 
CCc1cc(C(=O)O)c(=O)[nH]c1-c1ccc2c(c1)cc(CN1CCCC1c1ccccc1)n2C (stereo not shown) [Cpd 131, 5-ethyl-6-(1-methyl-2-((2-phenylpyrrolidin-1-yl)methyl)-1H-indol-5-yl)-2-oxo-1,2-dihydropyridine-3-carboxylic acid] | 1 to 3.5 (≈ 2.2 to 7.68 µM) | < 1 | 1 to 3.5 (≈ 2.2 to 7.68 µM) | 12.5 to 150 (≈ 27.4 to 329 µM) | 12.5 to 150 (≈ 27.4 to 329 µM) | 3.5 to 12.5 (≈ 7.68 to 27.4 µM) | 12.5 to 150 (≈ 27.4 to 329 µM) | 
CCc1cc(C(=O)O)c(=O)[nH]c1-c1ccc2c(c1)cc1n2CCC1N1CCOCC1 (stereo not shown) [Cpd 155, 5-ethyl-6-(1-morpholino-2,3-dihydro-1H-pyrrolo[1,2-a]indol-7-yl)-2-oxo-1,2-dihydropyridine-3-carboxylic acid] | 3.5 to 12.5 (≈ 8.59 to 30.7 µM) | < 1 | 12.5 to 150 (≈ 30.7 to 368 µM) | 12.5 to 150 (≈ 30.7 to 368 µM) | 12.5 to 150 (≈ 30.7 to 368 µM) | 12.5 to 150 (≈ 30.7 to 368 µM) | 3.5 to 12.5 (≈ 8.59 to 30.7 µM) | 
CCc1cc(C(=O)O)c(=O)[nH]c1-c1ccc2c(c1)cc(CCN1CCOCC1)n2C [Cpd 162, 5-ethyl-6-(1-methyl-2-(2-morpholinoethyl)-1H-indol-5-yl)-2-oxo-1,2-dihydropyridine-3-carboxylic acid] | 1 to 3.5 (≈ 2.44 to 8.55 µM) | < 1 | 12.5 to 150 (≈ 30.5 to 366 µM) | 12.5 to 150 (≈ 30.5 to 366 µM) | 12.5 to 150 (≈ 30.5 to 366 µM) | 3.5 to 12.5 (≈ 8.55 to 30.5 µM) | 1 to 3.5 (≈ 2.44 to 8.55 µM) | 
CCc1c(-c2ccc3c(c2)cc(CNCc2ccccc2)n3C)[nH]c(=O)c(C(=O)O)c1O.Cl [Cpd 214, 6-(2-((benzylamino)methyl)-1-methyl-1H-indol-5-yl)-5-ethyl-4-hydroxy-2-oxo-1,2-dihydropyridine-3-carboxylic acid hydrochloride] | < 1 | < 1 | 1 to 3.5 |  | 12.5 to 150 |  | 12.5 to 150 | 12.5 to 150
CCc1c(-c2ccc3c(c2)cc(CNCc2cccnc2)n3C)[nH]c(=O)c(C(=O)O)c1O.Cl [Cpd 220, 5-ethyl-4-hydroxy-6-(1-methyl-2-((pyridin-3-ylmethylamino)methyl)-1H-indol-5-yl)-2-oxo-1,2-dihydropyridine-3-carboxylic acid hydrochloride] | < 1 | < 1 | 1 to 3.5 |  | 12.5 to 150 |  | 3.5 to 12.5 | 12.5 to 150
CCc1c(-c2ccc3c(c2)cc(C2CCNC2)n3C)[nH]c(=O)c(C(=O)O)c1O (stereo not shown) [Cpd 306, 5-ethyl-4-hydroxy-6-(1-methyl-2-(pyrrolidin-3-yl)-1H-indol-5-yl)-2-oxo-1,2-dihydropyridine-3-carboxylic acid] | 3.5 to 12.5 (≈ 9.18 to 32.8 µM) | 1 to 3.5 (≈ 2.62 to 9.18 µM) | 12.5 to 150 (≈ 32.8 to 393 µM) | 12.5 to 150 (≈ 32.8 to 393 µM) | 3.5 to 12.5 (≈ 9.18 to 32.8 µM) | 12.5 to 150 (≈ 32.8 to 393 µM) | 3.5 to 12.5 (≈ 9.18 to 32.8 µM) | 
Cn1c(CNCC2CC2)cc2cc(-c3[nH]c(=O)c(C(=O)O)c(O)c3-c3ccc(F)cc3)ccc21 [Cpd 311, 6-(2-((cyclopropylmethylamino)methyl)-1-methyl-1H-indol-5-yl)-5-(4-fluorophenyl)-4-hydroxy-2-oxo-1,2-dihydropyridine-3-carboxylic acid] | 1 to 3.5 (≈ 2.17 to 7.58 µM) | < 1 | 12.5 to 150 (≈ 27.1 to 325 µM) |  | 12.5 to 150 (≈ 27.1 to 325 µM) |  |  | 
Cn1c(CN2CCC2)cc2cc(-c3[nH]c(=O)c(C(=O)O)c(O)c3-c3ccc(F)cc3)ccc21 [Cpd 312, 6-(2-(azetidin-1-ylmethyl)-1-methyl-1H-indol-5-yl)-5-(4-fluorophenyl)-4-hydroxy-2-oxo-1,2-dihydropyridine-3-carboxylic acid] | 3.5 to 12.5 (≈ 7.82 to 27.9 µM) | < 1 | 12.5 to 150 (≈ 27.9 to 335 µM) |  | 12.5 to 150 (≈ 27.9 to 335 µM) |  |  | 
CC(C)c1c(-c2ccc3c(c2)cc(CN2CCCC2)n3C)[nH]c(=O)c(C(=O)O)c1O [Cpd 319, 4-hydroxy-5-isopropyl-6-(1-methyl-2-(pyrrolidin-1-ylmethyl)-1H-indol-5-yl)-2-oxo-1,2-dihydropyridine-3-carboxylic acid] | 1 to 3.5 (≈ 2.44 to 8.55 µM) | < 1 | 3.5 to 12.5 (≈ 8.55 to 30.5 µM) |  | 12.5 to 150 (≈ 30.5 to 366 µM) |  |  | 
CC(C)c1c(-c2ccc3c(c2)cc(CN2CCC2)n3C)[nH]c(=O)c(C(=O)O)c1O [Cpd 320, 6-(2-(azetidin-1-ylmethyl)-1-methyl-1H-indol-5-yl)-4-hydroxy-5-isopropyl-2-oxo-1,2-dihydropyridine-3-carboxylic acid] | 1 to 3.5 (≈ 2.53 to 8.85 µM) | < 1 | 3.5 to 12.5 (≈ 8.85 to 31.6 µM) |  | 12.5 to 150 (≈ 31.6 to 379 µM) |  |  | 
CC(C)c1c(-c2ccc3c(c2)cc(CNCC2CC2)n3C)[nH]c(=O)c(C(=O)O)c1O [Cpd 321, 6-(2-((cyclopropylmethylamino)methyl)-1-methyl-1H-indol-5-yl)-4-hydroxy-5-isopropyl-2-oxo-1,2-dihydropyridine-3-carboxylic acid] | 1 to 3.5 (≈ 2.44 to 8.55 µM) | < 1 | 3.5 to 12.5 (≈ 8.55 to 30.5 µM) |  | 12.5 to 150 (≈ 30.5 to 366 µM) |  |  | 
CN(C)Cc1cc2cc(-c3cc(O)c(C(=O)O)c(=O)[nH]3)ccc2n1C [Cpd 326, 6-(2-((dimethylamino)methyl)-1-methyl-1H-indol-5-yl)-4-hydroxy-2-oxo-1,2-dihydropyridine-3-carboxylic acid] | 12.5 to 150 (≈ 36.6 to 439 µM) | 12.5 to 150 (≈ 36.6 to 439 µM) | 12.5 to 150 (≈ 36.6 to 439 µM) |  | 12.5 to 150 (≈ 36.6 to 439 µM) |  |  | 
Cn1c(CN2CCCC2)cc2cc(-c3cc(O)c(C(=O)O)c(=O)[nH]3)ccc21 [Cpd 327, 4-hydroxy-6-(1-methyl-2-(pyrrolidin-1-ylmethyl)-1H-indol-5-yl)-2-oxo-1,2-dihydropyridine-3-carboxylic acid] | 12.5 to 150 (≈ 34 to 408 µM) | 3.5 to 12.5 (≈ 9.53 to 34 µM) | 12.5 to 150 (≈ 34 to 408 µM) |  | 12.5 to 150 (≈ 34 to 408 µM) |  |  | 
CCc1c(-c2ccc3c(c2)cc(CN2CCCC2)n3C)[nH]c(=O)c(C(=O)O)c1N [Cpd 329, 4-amino-5-ethyl-6-(1-methyl-2-(pyrrolidin-1-ylmethyl)-1H-indol-5-yl)-2-oxo-1,2-dihydropyridine-3-carboxylic acid] | 3.5 to 12.5 (≈ 8.87 to 31.7 µM) | < 1 | 12.5 to 150 (≈ 31.7 to 380 µM) |  | 12.5 to 150 (≈ 31.7 to 380 µM) |  |  | 
CCc1c(-c2ccc3c(c2)cc(CN(C)C)n3C)[nH]c(=O)c(C(=O)O)c1N [Cpd 330, 4-amino-6-(2-((dimethylamino)methyl)-1-methyl-1H-indol-5-yl)-5-ethyl-2-oxo-1,2-dihydropyridine-3-carboxylic acid] | 3.5 to 12.5 (≈ 9.5 to 33.9 µM) | < 1 | 12.5 to 150 (≈ 33.9 to 407 µM) |  | 12.5 to 150 (≈ 33.9 to 407 µM) |  |  | 
CCc1c(-c2ccc3c(c2)cc(CN2CCC(N(C)C)C2)n3C)[nH]c(=O)c(C(=O)O)c1N (stereo not shown) [Cpd 332, 4-amino-6-(2-((3-(dimethylamino)pyrrolidin-1-yl)methyl)-1-methyl-1H-indol-5-yl)-5-ethyl-2-oxo-1,2-dihydropyridine-3-carboxylic acid] | 12.5 to 150 (≈ 28.6 to 343 µM) | 3.5 to 12.5 (≈ 8 to 28.6 µM) | 12.5 to 150 (≈ 28.6 to 343 µM) |  | 12.5 to 150 (≈ 28.6 to 343 µM) |  |  | 
CCc1c(-c2ccc3c(c2)c(C#N)cn3C)[nH]c(=O)c(C(=O)O)c1O [Cpd 359, 6-(3-cyano-1-methyl-1H-indol-5-yl)-5-ethyl-4-hydroxy-2-oxo-1,2-dihydropyridine-3-carboxylic acid] | 12.5 to 150 (≈ 37.1 to 445 µM) | 3.5 to 12.5 (≈ 10.4 to 37.1 µM) | 12.5 to 150 (≈ 37.1 to 445 µM) |  | 1 to 3.5 (≈ 2.96 to 10.4 µM) |  |  | 
CCc1c(-c2ccc3c(c2)c(C#N)c(N2CCCC2)n3C)[nH]c(=O)c(C(=O)O)c1O [Cpd 360, 6-(3-cyano-1-methyl-2-(pyrrolidin-1-yl)-1H-indol-5-yl)-5-ethyl-4-hydroxy-2-oxo-1,2-dihydropyridine-3-carboxylic acid] | 12.5 to 150 (≈ 30.8 to 369 µM) | 3.5 to 12.5 (≈ 8.61 to 30.8 µM) | 1 to 3.5 (≈ 2.46 to 8.61 µM) |  | 12.5 to 150 (≈ 30.8 to 369 µM) |  |  | 
CCc1c(-c2ccc3c(c2)c(C#N)c(N(C)C)n3C)[nH]c(=O)c(C(=O)O)c1O [Cpd 361, 6-(3-cyano-2-(dimethylamino)-1-methyl-1H-indol-5-yl)-5-ethyl-4-hydroxy-2-oxo-1,2-dihydropyridine-3-carboxylic acid] | 12.5 to 150 (≈ 32.9 to 394 µM) | 1 to 3.5 (≈ 2.63 to 9.2 µM) | 3.5 to 12.5 (≈ 9.2 to 32.9 µM) |  | 12.5 to 150 (≈ 32.9 to 394 µM) |  |  | 
CCc1c(-c2ccc3c(c2)c(Cl)cn3C)[nH]c(=O)c(C(=O)O)c1O [Cpd 363, 6-(3-chloro-1-methyl-1H-indol-5-yl)-5-ethyl-4-hydroxy-2-oxo-1,2-dihydropyridine-3-carboxylic acid] | 12.5 to 150 (≈ 36 to 433 µM) | < 1 | 1 to 3.5 (≈ 2.88 to 10.1 µM) |  | 1 to 3.5 (≈ 2.88 to 10.1 µM) |  |  | 
